Drawing on the RepoRT retention time repository, this text covers LC retention time for 112 compounds.

The data set is described as follows: Agilent ZORBAX 300 SB-C18, 150 × 1 mm, 3.5 µm; A: water + 0.01% heptafluorobutyric acid; B: acetonitrile + 0.01% heptafluorobutyric acid; gradient (min/%B) 0/0 100/90. The note with it: stereoisomer not certain.
For `CNCC(O)c1cccc(O)c1` (configuration not stated), the LC retention time was determined as 7.2 min.

In the case of `COc1ccc2c(c1)C(C)N1C(=O)c3cc(OC)c(OC)cc3C1O2` (configuration not stated), the LC retention time came to 13.1 min.

As to `CC(=O)CNC(C)(C)C`, the LC retention time was 6.35 min.

`c1ccc(CC2CCN(Cc3ccccn3)CC2)cc1`: the LC retention time was found to be 10.1 min.

With `O=C(NCCNC(=O)c1ccccn1)c1ccccn1`, the LC retention time came to 8.71 min.

Regarding `c1cnc(NC2=NCCN2)cn1`, the LC retention time was 6.92 min.

Consider `O=C(O)Cn1c(=O)c(-c2ccccc2)nc2ccccc21`, for which the LC retention time is 11.8 min.

Take `CC(C)C(N)C(=O)O` (configuration not stated): the LC retention time was found to be 2.86 min.

As for `Nc1ccc2ncc(=O)[nH]c2c1`, the LC retention time stood at 6.59 min.

Consider `COc1ccc(C=CC(C)=O)cc1`, for which the LC retention time came to 12 min.

For `COc1ccc(NC(=O)c2cc3ccccc3oc2=N)cc1`, the LC retention time was determined as 10.1 min.

For `Nc1ccc(C(O)(c2ccc(N)cc2)c2ccc(N)cc2)cc1`, the LC retention time is 9.07 min.

As for `CN1C(=O)C(CCC(N)=O)NC1=S` (configuration not stated), the LC retention time is 6.53 min.

In the case of `NC(=O)c1ccc(NC(=S)Nc2ccccc2)cc1`, the LC retention time came out at 9.25 min.

With `CN1C(=O)NC(c2ccccc2)C2=C1CN(c1ccc(CC(=O)O)cc1)C2=O` (configuration not stated), the LC retention time was 9.56 min.

With `COc1cccc(OC)c1OCc1nc2ccccc2nc1C`, the LC retention time worked out at 13.3 min.

Regarding `c1ccc(C2=Nc3ccccc3Oc3ccccc32)cc1`, the LC retention time came out at 18.1 min.

`Nc1nc(N)nc(N)n1`: the LC retention time was determined as 4.25 min.

Regarding `CCCCOC(=O)c1ccc(NC(=O)CCCC)cc1`, the LC retention time stood at 16.3 min.

As for `CN1CCCC1`, the LC retention time stood at 5.54 min.

On to `CN(C)c1ccc(CNC2CC(C)(C)NC(C)(C)C2)cc1`, for which the LC retention time stood at 8.12 min.

As for `CC(C)(C(=O)O)c1ccc(C(O)CCCN2CCC(C(O)(c3ccccc3)c3ccccc3)CC2)cc1` (configuration not stated), the LC retention time was determined as 11.5 min.

For the compound `Cc1ccc(-c2cnc3ccccc3[n+]2C)c(C)c1`, the LC retention time was 10.4 min.

With `O=C(O)CCNc1n[nH]c(=O)[nH]c1=O`, the LC retention time came to 5.51 min.

For `O=CC1CCN(Cc2ccccc2)CC1`, the LC retention time was 7.84 min.

Turning to `CNCCOC`, the LC retention time was 4.63 min.

Take `CC1C2=C(CC(C)(C)CC2=O)NC2=C1C(=O)CC(C)(C)C2`: the LC retention time was 10.9 min.

Consider `O=C(c1ccccc1)c1nc2ccccc2[nH]c1=O`, for which the LC retention time amounted to 11.2 min.

In the case of `C[N+](C)(C)c1cnc(=O)[nH]c1`, the LC retention time is 2.5 min.

As to `CCC(C)NC(C)CC` (configuration not stated), the LC retention time is 8.16 min.

Consider `CC1(C)CC(N2CN(C3CCCCC3)CC2=O)CC(C)(C)N1`, for which the LC retention time worked out at 8.03 min.

Turning to `CN1CCC2(CC1)NC(=O)N(c1ccccc1)N2`, the LC retention time stood at 7.95 min.

Consider `c1ccc(-c2cc(N3CCCCC3)c3ccccc3n2)cc1`, for which the LC retention time amounted to 12 min.

In the case of `CN1CCOCC1`, the LC retention time turned out to be 3.96 min.

`Cc1ccc(-c2nc(-c3ccc(-c4ccccc4)cc3)[nH]c2-c2ccccc2)cc1C`: the LC retention time stood at 15 min.

In the case of `CC(=O)Nc1ccc(O)cc1`, the LC retention time worked out at 6.65 min.

Consider `Cc1cc(C)c2[nH]c3c(c2c1)CCCC3=O`, for which the LC retention time is 14.8 min.

As for `CC(=O)N=Nc1c(O)[nH]c2ccccc12`, the LC retention time is 7.66 min.

`c1ccc2c(N3CCCCC3)nc(N3CCCC3)nc2c1`: the LC retention time was found to be 11.7 min.

With `O=C(O)CCC(=O)Nc1ccc(Cc2ccc(NC(=O)CCC(=O)O)cc2)cc1`, the LC retention time amounted to 9.35 min.

Consider `CCc1ncc[nH]1`, for which the LC retention time turned out to be 6.1 min.

Regarding `CN(C)c1ccc(C=C2Nc3ccccc3C2=O)cc1`, the LC retention time was 13.7 min.

With `O=C1c2ccccc2-c2nc3ccccc3cc21`, the LC retention time was 14.2 min.

Consider `Cc1ccc2nc[nH]c2c1`, for which the LC retention time came out at 7.74 min.

As to `NC(=O)CC(NC(N)=O)C(=O)O` (configuration not stated), the LC retention time was found to be 1.47 min.

On to `Cc1ccc(-c2noc(-c3ccc(C)cc3)c2C)cc1`, for which the LC retention time was found to be 19.3 min.

Turning to `CC(C)(C)C(=O)NNc1ccccc1`, the LC retention time amounted to 10.5 min.

Turning to `CC(C)N(C)C(C)(C)C`, the LC retention time was found to be 7.1 min.

Turning to `CCOC(=O)CNc1ccccc1`, the LC retention time was 12.4 min.

As to `CNC(=S)NNC(C)=O`, the LC retention time was 2.17 min.

As to `C[N+]1(CCOCc2ccccc2)CC[N+](C)(CCOCc2ccccc2)CC1` (configuration not stated), the LC retention time was 9.32 min.

As for `O=C(NN=Cc1ccccc1)c1ccncc1`, the LC retention time is 8.96 min.

Turning to `CCCCCCCCCCN(C)C`, the LC retention time worked out at 12 min.

Turning to `CCCCCCC1(C)OCOC1=CC[N+](C)(C)C` (configuration not stated), the LC retention time was determined as 10.8 min.

Turning to `CNC(=O)c1ccc(N)cc1`, the LC retention time was 6.25 min.

Take `Cc1ccc(C(=O)c2ccc(C)c(N)c2)cc1N`: the LC retention time amounted to 10.3 min.

On to `Nc1cccc(N)c1`, for which the LC retention time is 5.85 min.

For the compound `O=C(O)CCCNC(=O)CCCCCCCC(=O)NCCCC(=O)O`, the LC retention time came to 7.58 min.

As to `CCCCCC(N)=O`, the LC retention time came out at 8.31 min.

For the compound `Cc1cc2[nH]c(=O)[nH]c2cc1N`, the LC retention time was determined as 6.14 min.

For the compound `Cc1ccc(C(=O)C=Cc2ccco2)cc1`, the LC retention time was 15.1 min.

Regarding `Nc1ccc(C(=O)NC=C2CCCC2)cc1`, the LC retention time amounted to 7.87 min.

As for `CC(=O)NCCOc1ccc(C)cc1`, the LC retention time stood at 10.4 min.

With `CC(C)NCCO`, the LC retention time turned out to be 5.44 min.

As to `Cc1ccccc1N(C)C`, the LC retention time amounted to 7.62 min.

Take `Cc1nc(N=C(N)N)nc2c(C)cccc12`: the LC retention time was determined as 9.23 min.

In the case of `O=C(NN=Cc1cccc(O)c1)c1cc2ccccc2cc1O`, the LC retention time came to 12.2 min.

As to `c1ccc2c(c1)CCCN2`, the LC retention time amounted to 7.61 min.

Consider `CCc1ccc(C=NNC(=O)C[n+]2ccccc2)cc1`, for which the LC retention time was determined as 9.72 min.

Consider `CCCCN(CC)CC`, for which the LC retention time was 7.73 min.

For `Nc1cccc2oc3ccccc3c12`, the LC retention time is 11.6 min.

As for `OCCCc1cn(-c2ccccc2)c2ccccc12`, the LC retention time stood at 14.8 min.

For `c1cncc(-c2nnco2)c1`, the LC retention time was found to be 6.78 min.

In the case of `CNCCc1ccncc1`, the LC retention time stood at 6.72 min.

With `Nc1ccc2ncn(Cc3ccccc3)c(=O)c2c1`, the LC retention time amounted to 9.74 min.

For `O=C(NCCCn1c2ccccc2c2ccccc21)Nc1ccccc1`, the LC retention time was 15.8 min.

As to `CCCCCCCCCCCCC(N)=O`, the LC retention time amounted to 18.2 min.

`c1ccc(C(c2ccccc2)c2nc(-c3ccncc3)no2)cc1`: the LC retention time stood at 14.9 min.

As to `CCC(=O)Nc1ccc(NCC(=O)Nc2ccc(C)cc2C)cc1`, the LC retention time turned out to be 11.1 min.

Consider `COc1ccccc1-n1c(=O)n2n(c1=O)CCCC2`, for which the LC retention time turned out to be 9.12 min.

Take `CC(C)CN(CC(C)C)CC(C)C`: the LC retention time is 9.7 min.

On to `CC(C)NCC(O)COc1ccc(CCOCC2CC2)cc1` (configuration not stated), for which the LC retention time stood at 10.7 min.

For the compound `CCCc1ccc(O)c(N)c1`, the LC retention time was determined as 8.64 min.

For the compound `CCCCCCCCNCCCCCCCC`, the LC retention time was 14.8 min.

Turning to `COc1ccc(CN2CCC(N)CC2)cc1OC`, the LC retention time stood at 7.7 min.

For `Cc1[nH]c2ccccc2c1C=NN=Cc1c(C)[nH]c2ccccc12`, the LC retention time is 12 min.

For `CCOC(=O)c1c(C)n(-c2ccccc2)c2ccc(OC(C)=O)cc12`, the LC retention time was found to be 17 min.

Regarding `O=C1C=CC(=O)N1C1CCCCC1`, the LC retention time was determined as 9.58 min.

As to `O=C(O)CC(NCc1ccccc1)C(=O)O` (configuration not stated), the LC retention time was 6.19 min.

Regarding `c1ccc(CCn2c(-c3ccccc3)csc2=Nc2ccccc2)cc1`, the LC retention time turned out to be 13.8 min.

`Cc1cc(C)ncn1`: the LC retention time was found to be 7.51 min.

For the compound `COC(=O)C1CCCNC1=O` (configuration not stated), the LC retention time was 6.61 min.

Consider `O=C1CC(Nc2ccc3ccccc3c2)C(=O)N1c1cccc2ccccc12` (configuration not stated), for which the LC retention time was determined as 15.7 min.

Turning to `Cc1cc(-c2ccccc2)cc(-c2ccccc2)n1`, the LC retention time worked out at 12.1 min.

With `CC(=O)NC1CCC2C3CC=C4CC(OC(C)=O)CCC4(C)C3CCC12C` (configuration not stated), the LC retention time is 16.7 min.

Take `Nc1nc2ccccc2[nH]1`: the LC retention time came out at 7.69 min.

As to `CCN(C(C)C)C(C)C`, the LC retention time was determined as 7.51 min.

On to `Cc1cc(C)c(NC(=O)Nc2ccccc2)c(C)n1`, for which the LC retention time worked out at 8.82 min.

In the case of `NCCNCCNCCN`, the LC retention time was determined as 7.5 min.

In the case of `CC(CCc1ccccc1)NCC(O)c1ccc(O)c(C(N)=O)c1` (configuration not stated), the LC retention time is 10 min.

On to `Nc1ccc2c(c1)SSc1cc(N)ccc1-2`, for which the LC retention time was determined as 10.3 min.

With `C=CCC1(CC=C)CCCCN1`, the LC retention time is 8.76 min.

For the compound `Cc1ccc(OC(=O)CCC(=O)N2CCN(C(=O)CCC(=O)Oc3ccc(C)cc3)CC2)cc1`, the LC retention time worked out at 14.3 min.

In the case of `c1ccc(Sc2ccc3ccccc3n2)cc1`, the LC retention time worked out at 16.3 min.

Regarding `CC(C)OC(C)n1cccc1-c1ccccc1` (configuration not stated), the LC retention time turned out to be 17.7 min.

For the compound `C1CCC(OCCN2CCN(CCOC3CCCCC3)CC2)CC1`, the LC retention time was determined as 10.9 min.

With `Nc1nc2c([nH]c(=O)n2C2CC(O)C(CO)O2)c(=O)[nH]1` (configuration not stated), the LC retention time amounted to 6.05 min.

For the compound `Cc1cc(C)n(CCO)c(=O)n1`, the LC retention time turned out to be 5.92 min.

As for `CCCCc1ccc(NC(=O)c2ccc(OC(C)=O)cc2)cc1`, the LC retention time stood at 16.5 min.

In the case of `Cc1ccc(CN2CCN(N=Cc3ccco3)CC2)cc1`, the LC retention time came out at 9.55 min.

Take `Cn1c(=O)c(=O)n(CC(=O)c2ccc3c(c2)CCCC3)c2ccccc21`: the LC retention time came out at 14.1 min.

As to `COc1ccc(C=CC(=O)C=Cc2ccc(OC)cc2OC)c(OC)c1`, the LC retention time is 16.6 min.
